Where two headings read alike, the source gives them in different places.
Tested on: NL-RLuc virus
Assay: Inhibition of HIV replication (NL-RLuc virus, luciferase readout, MT-2 cells)
Format: cell-based
Conditions: Human immunodeficiency virus 1, MT2, 120 h
Text: Inhibition of HIV Replication:
A recombinant NL-RLuc proviral clone was constructed in which a section of the nef gene from NL4-3 was replaced with the Renilla Luciferase gene. This virus is fully infectious and can undergo multiple cycles of replication in cell culture. In addition, the luciferous reporter provides a simple and easy method for quantitating the extent of virus growth and consequently, the antiviral activity of test compounds. The plasmid pNLRLuc contains the proviral NL-Rluc DNA cloned into pUC18 at the PvuII site. The NL-RLuc virus was prepared by transfection of 293T cells with the plasmid pNLRLuc. Transfections were performed using the LipofectAMINE PLUS kit from Invitrogen (Carlsbad, Calif.) according to the manufacturer and the virus generated was titered in MT-2 cells. For susceptibility analyses, the titrated virus was used to infect MT-2 cells in the presence of compound, and after 5 days of incubation, cells were processed and quantitated for virus growth by the amount of expressed luciferase. Assay media was RPMI 1640 supplemented with 10% heat inactivated fetal bovine serum (FBS), 100 units/ml penicillin G/100 units/ml streptomycin, 10 mM HEPES buffer pH 7.55 and 2 mM L-glutamine. The results from at least 2 experiments were used to calculate the EC50 values. Luciferase was quantitated using the Dual Luciferase kit from Promega (Madison, Wis.). Susceptibility of viruses to compounds was determined by incubation in the presence of serial dilutions of the compound. The 50% effective concentration (EC50) was calculated by using the exponential form of the median effect equation where (Fa)=1/[1+(ED50/drug conc.)^m] (Johnson V A, Byington R T. Infectivity Assay. In Techniques in HIV Research. ed. Aldovini A, Walker B D. 71-76. New York: Stockton Press. 1990). Activity equal to A refers to a compound having an EC50≤100 nM, while B and C denote compounds having an EC50 between 100 nM and luM (B) or >1 uM (C).

| Structure (SMILES) | EC50 (read-out: Activity) [µM] | EC50 (read-out: EC50 μM) [µM] |
| --- | --- | --- |
| Cc1cc2nc3cn2c(c1[C@H](OC(C)(C)C)C(=O)O)N1CCC(C)(CC1)OCCOC[C@H](C)Oc1cc(F)c(F)cc1-c1cccc-3c1 [Example 1, (2S)-2-(tert-Butoxy)-2-[(22S)-17,18-difluoro-4,22,28-trimethyl-21,24,27-trioxa-1,7,34-triazahexacyclo[26.2.2.1^6,^9.1^1^0,^1^4.0^2,^7.0^1^5,^2^0]tetratriaconta-2,4,6(34),8,10(33),11,13,15(20),16,18-decaen-3-yl]acetic Acid] | < 0.1 | 0.001 |
| Cc1c([C@H](OC(C)(C)C)C(=O)O)c2n3cc(nc3c1C#N)-c1cccc(c1)-c1cc(F)c(F)cc1O[C@@H](C)COCCOC1(C)CCN2CC1 [Example 17, (2S)-2-(tert-Butoxy)-2-[(22S)-5-cyano-17,18-difluoro-4,22,28-trimethyl-21,24,27-trioxa-1,7,34-triazahexacyclo[26.2.2.1^6,^9.1^1^0,^1^4.0^2,^7.0^1^5,^2^0]tetratriaconta-2,4,6(34),8,10(33),11,13,15(20),16,18-decaen3-yl]acetic Acid] | < 0.1 |  |
| Cc1c([C@H](OC(C)(C)C)C(=O)O)c2n3c(Cl)c(nc3c1C)-c1cccc(c1)-c1cc(F)c(F)cc1O[C@@H](C)COCCOC1(C)CCN2CC1 [Example 8, (2S)-2-(tert-Butoxy)-2-[(22S)-8-chloro-17,18-difluoro-4,5,22,28-tetramethyl-21,24,27-trioxa-1,7,34-triazahexacyclo[26.2.2.1^6,^9.1^1^0,^1^4.0^2,^7.0^1^5,^2^0]tetratriaconta-2,4,6(34),8,10(33),11,13,15(20),16,18-decaen-3-yl]acetic Acid] | < 0.1 |  |
| Cc1ccc2c(c1)O[C@@H](C)COCCOC1(C)CCN(CC1)c1c([C@H](OC(C)(C)C)C(=O)O)c(C)cc3nc(cn13)-c1cccc-2c1 [Example 22, (2S)-2-(tert-Butoxy)-2-[(22S)-4,18,22,28-tetramethyl-21,24,27-trioxa-1,7,34-triazahexacyclo[26.2.2.1^6,^9.1^1^0,^1^4.0^2,^7.0^1^5,^2^0]tetratriaconta-2,4,6(34),8,10(33),11,13,15(20),16,18-decaen-3-yl]acetic Acid] | < 0.1 |  |
| Cc1ccc2c(c1)-c1cccc(c1)-c1cn3c(c([C@H](OC(C)(C)C)C(=O)O)c(C)c(C)c3n1)N1CCC(C)(CC1)OCCOC[C@H](C)O2 [Example 26, (2S)-2-(tert-Butoxy)-2-[(22S)-4,5,17,22,28-pentamethyl-21,24,27-trioxa-1,7,34-triazahexacyclo[26.2.2.1^6,^9.1^1^0,^1^4.0^2,^7.0^1^5,^2^0]tetratriaconta-2,4,6(34),8,10(33),11,13,15(20),16,18-decaen-3-yl]acetic Acid] | < 0.1 |  |
| Cc1c([C@H](OC(C)(C)C)C(=O)O)c2n3c(Cl)c(nc3c1Cn1ccnn1)-c1cccc(c1)-c1cc(F)c(F)cc1O[C@@H](C)COCCOC1(C)CCN2CC1 [Example 12, (2S)-2-(tert-Butoxy)-2-[(22S)-8-chloro-17,18-difluoro-4,22,28-trimethyl-5-(1H-1,2,3-triazol-1-ylmethyl)-21,24,27-trioxa-1,7,34-triazahexacyclo[26.2.2.1^6,^9.1^1^0,^1^4.0^2,^7.0^1^5,^2^0]tetratriaconta-2,4,6(34),8,10(33),11,13,15(20),16,18-decaen-3-yl]acetic Acid] | < 0.1 | 0.012 |
| Cc1c([C@@H](OC(C)(C)C)C(=O)O)c2n3cc(nc3c1C)-c1cccc(c1)-c1cc(F)c(F)cc1O[C@@H](C)COCCOC1(C)CCN2CC1 [Example 3, (2R)-2-(tert-butoxy)-2-((6S,Z)-44,45-difluoro-14,27,6-trimethyl-5,8,11-trioxa-2(5,2)-imidazo[1,2-a]pyridina-1(1,4)-piperidina-3(1,3),4(1,2)-dibenzenacycloundecaphane-26-yl)acetic Acid] | 0.1 to 1 | 0.305 |
| Cc1c([C@H](OC(C)(C)C)C(=O)O)c2n3c(C)c(nc3c1C)-c1cccc(c1)-c1cc(F)c(F)cc1O[C@@H](C)COCCOC1(C)CCN2CC1 [Example 15, (2S)-2-(tert-Butoxy)-2-[(22S)-17,18-difluoro-4,5,8,22,28-pentamethyl-21,24,27-trioxa-1,7,34-triazahexacyclo[26.2.2.1^6,^9.1^1^0,^1^4.0^2,^7.0^1^5,^2^0]tetratriaconta-2,4,6(34),8,10(33),11,13,15(20),16,18-decaen-3-yl]acetic Acid] | < 0.1 |  |
| Cc1c([C@H](OC(C)(C)C)C(=O)O)c2n3cc(nc3c1C)-c1cccc(c1)-c1cc(F)c(F)cc1O[C@@H](C)COCCOC1(C)CCN2CC1 [Example 2, (2S)-2-(tert-Butoxy)-2-[(22S)-17,18-difluoro-4,5,22,28-tetramethyl-21,24,27-trioxa-1,7,34-triazahexacyclo[26.2.2.1^6,^9.1^1^0,^1^4.0^2,^7.0^1^5,^2^0]tetratriaconta-2,4,6(34),8,10(33),11,13,15(20),16,18-decaen-3-yl]acetic Acid] | < 0.1 |  |
| CCC(C)(C)O[C@H](C(=O)O)c1c(C)c(C)c2nc3cn2c1N1CCC(C)(CC1)OCCOC[C@H](C)Oc1cc(F)c(F)cc1-c1cccc-3c1 [Example 4, (2S)-2-[(22S)-17,18-Difluoro-4,5,22,28-tetramethyl-21,24,27-trioxa-1,7,34-triazahexacyclo[26.2.2.1^6,^9.1^1^0,^1^4.0^2,^7.0^1^5,^2^0]tetratriaconta-2,4,6(34),8,10(33),11,13,15(20),16,18-decaen-3-yl]-2-[(2-methylbutan-2-yl)oxy]acetic Acid] | < 0.1 |  |
| Cc1cc(F)c2c(c1)O[C@@H](C)COCCOC1(C)CCN(CC1)c1c([C@H](OC(C)(C)C)C(=O)O)c(C)cc3nc(cn13)-c1cccc-2c1 [Example 18, (2S)-2-(tert-Butoxy)-2-[(22S)-16-fluoro-4,18,22,28-tetramethyl-21,24,27-trioxa-1,7,34-triazahexacyclo[26.2.2.1^6,^9.1^1^0,^1^4.0^2,^7.0^1^5,^2^0]tetratriaconta-2,4,6(34),8,10(33),11,13,15(20),16,18-decaen-3-yl]acetic Acid] | < 0.1 |  |
| Cc1ccc2c(c1)-c1cccc(c1)-c1nc3c(C)c(C)c([C@H](OC(C)(C)C)C(=O)O)c(n3c1Cl)N1CCC(C)(CC1)OCCOC[C@H](C)O2 [Example 27, (2S)-2-(tert-Butoxy)-2-[(22S)-8-chloro-4,5,17,22,28-pentamethyl-21,24,27-trioxa-1,7,34-triazahexacyclo[26.2.2.1^6,^9.1^1^0,^1^4.0^2,^7.0^1^5,^2^0]tetratriaconta-2,4,6(34),8,10(33),11,13,15(20),16,18-decaen-3-yl]acetic Acid] | < 0.1 |  |
| Cc1c([C@H](OC(C)(C)C)C(=O)O)c2n3c(Cl)c(nc3c1CO)-c1cccc(c1)-c1cc(F)c(F)cc1O[C@@H](C)COCCOC1(C)CCN2CC1 [Example 9, (2S)-2-(tert-Butoxy)-2-[(22S)-8-chloro-17,18-difluoro-5-(hydroxymethyl)-4,22,28-trimethyl-21,24,27-trioxa-1,7,34-triazahexacyclo[26.2.2.1^6,^9.1^1^0,^1^4.0^2,^7.0^1^5,^2^0]tetratriaconta-2,4,6(34),8,10(33),11,13,15(20),16,18-decaen-3-yl]acetic Acid] | < 0.1 |  |
| Cc1c([C@H](OC(C)(C)C)C(=O)O)c2n3cc(nc3c1C)-c1cccc(c1)-c1cc(F)ccc1O[C@@H](C)COCCOC1(C)CCN2CC1 [Example 28, (2S)-2-(tert-Butoxy)-2-((6S,Z)-45-fluoro-14,27,28,6-tetramethyl-5,8,11-trioxa-2(5,2)-imidazo[1,2-a]pyridina-1(1,4)-piperidina-3(1,3),4(1,2)-dibenzenacycloundecaphane-26-yl)acetic Acid] | < 0.1 |  |
| Cc1c([C@H](OC(C)(C)C)C(=O)O)c2n3c(Cl)c(nc3c1Cn1nccn1)-c1cccc(c1)-c1cc(F)c(F)cc1O[C@@H](C)COCCOC1(C)CCN2CC1 [Example 13, (2S)-2-(tert-butoxy)-2-[(22S)-8-chloro-17,18-difluoro-4,22,28-trimethyl-5-(2H-1,2,3-triazol-2-ylmethyl)-21,24,27-trioxa-1,7,34-triazahexacyclo[26.2.2.1^6,^9.1^1^0,^1^4.0^2,^7.0^1^5,^2^0]tetratriaconta-2,4,6(34),8,10(33),11,13,15(20),16,18-decaen-3-yl]acetic Acid] | < 0.1 |  |
| Cc1ccc2c(c1)-c1cccc(c1)-c1cn3c(c([C@H](OC(C)(C)C)C(=O)O)c(C)cc3n1)N1CCC(C)(CC1)OCCOC[C@H](C)O2 [Example 25, (2S)-2-(tert-Butoxy)-2-[(22S)-4,17,22,28-tetramethyl-21,24,27-trioxa-1,7,34-triazahexacyclo[26.2.2.1^6,^9.1^1^0,^1^4.0^2,^7.0^1^5,^2^0]tetratriaconta-2,4,6(34),8,10(33),11,13,15(20),16,18-decaen-3-yl]acetic acid] | < 0.1 | 0.002 |

— patent US10138253B2, “Imidazopyridine macrocycles as inhibitors of human immunodeficiency virus replication” (priority 2015, dated 2018)
